Data taken from patent US20070117808A1, “Substituted Cycloalkylpyrrolones As Allosteric Modulators Of Glucokinase” (priority 2005, published 2007).
Where “and” joins values, the source holds several entries; their conditions need not be identical. Equal entries are not always repeated.

Experiments:
[1] = molecular target: T1, human pancreas Glucokinase (GK) (Homo sapiens, UniProt P35557); assay: Glucokinase enzyme assay, pancreas GK; type: biochemical; conditions: for EC50: concentration that produces 50% activation above the vehicle control; for EC100%: concentration that produces 100% activation above the vehicle control; for activation at 50 µM: percentage increase in GK activity above vehicle control, compound 50 μM, 12 mM glucose
T1 construct: (His)6; made in house; host or cells: Escherichia coli
T1 sequence (P35557 1-465): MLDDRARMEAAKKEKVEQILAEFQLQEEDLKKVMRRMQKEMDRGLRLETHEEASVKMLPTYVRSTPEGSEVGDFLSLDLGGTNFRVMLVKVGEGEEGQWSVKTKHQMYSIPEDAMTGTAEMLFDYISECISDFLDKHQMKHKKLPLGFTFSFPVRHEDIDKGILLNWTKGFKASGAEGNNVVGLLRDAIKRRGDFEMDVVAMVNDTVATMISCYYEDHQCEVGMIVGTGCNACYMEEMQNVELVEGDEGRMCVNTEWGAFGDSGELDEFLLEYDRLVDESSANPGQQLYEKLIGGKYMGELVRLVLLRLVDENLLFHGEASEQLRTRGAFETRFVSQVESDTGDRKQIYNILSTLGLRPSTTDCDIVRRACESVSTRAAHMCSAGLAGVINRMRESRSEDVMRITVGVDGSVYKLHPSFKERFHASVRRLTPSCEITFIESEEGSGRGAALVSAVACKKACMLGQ
From the text: (§1) An enzymatic Glucokinase (GK) assay using purified recombinant human liver/pancreas enzyme was used to evaluate the effects of potential small molecule modulators.
(§2) In this assay, GK catalyzes glucose phosphorylation in the presence of ATP. The product of this reaction, glucose-6-phosphate, was then oxidized by an excess of glucose-6-phosphate dehydrogenase to produce gluconate-6-phosphate with concomitant reduction of nicotinamide adenine dinucleotide (NAD). […] Human GK (Liver/Pancreas) was expressed in Escherichia coli as a (His) 6-tagged fusion protein and was purified by metal chelate affinity chromatography. The assay was performed in a final incubation volume of 80 μl in a 96-well clear low UV absorption plates. The incubation mixture consisted of 25 mM HEPES, 2 mM MgSO4, 1 mM dithiothreotol (DTT), 1 mg/mL bovine serum albumin (BSA), 1 mM ATP, 1 mM NAD, and 12 mM glucose, 10 units per mL glucose-6-phosphate dehydrogenase, and +/−300 ng per mL GK. For determination of the affinity (Km) and Vmax, different concentrations of glucose ranging from 0.5 mM to 40 mM were used in the assay; see Grimsby, J., Sarabu, R.; Grippo, J. F.; et. al. Science 2003, 301, 370-373. Production of reduced NAD (Nicotinamide Adenine Dinucleotide) was measured as changes in absorption at 340 nm in 96-well plate reader (Envision model # 2101 Multilabel Plate reader). % Activation @ 50 μM was calculated as the percentage increase in GK activity above the vehicle control with the effective concentration of the compound being 50 μM. EC50% (μM) was calculated as the effective concentration of the compound that produces 50% activation above the vehicle control, and EC100% (μM) was calculated as the effective concentration of the compound that produces 100% activation above the vehicle control.

[2] = molecular target: T2, human liver Glucokinase (GK) (Homo sapiens, UniProt P35557); assay: Glucokinase enzyme assay, liver GK; type: biochemical; conditions: for EC50: concentration that produces 50% activation above the vehicle control; for EC100%: concentration that produces 100% activation above the vehicle control; for activation at 50 µM: percentage increase in GK activity above vehicle control, compound 50 μM, 12 mM glucose
T2 construct: (His)6; made in house; host or cells: Escherichia coli
T2 sequence (P35557 1-466 isoform P35557-2): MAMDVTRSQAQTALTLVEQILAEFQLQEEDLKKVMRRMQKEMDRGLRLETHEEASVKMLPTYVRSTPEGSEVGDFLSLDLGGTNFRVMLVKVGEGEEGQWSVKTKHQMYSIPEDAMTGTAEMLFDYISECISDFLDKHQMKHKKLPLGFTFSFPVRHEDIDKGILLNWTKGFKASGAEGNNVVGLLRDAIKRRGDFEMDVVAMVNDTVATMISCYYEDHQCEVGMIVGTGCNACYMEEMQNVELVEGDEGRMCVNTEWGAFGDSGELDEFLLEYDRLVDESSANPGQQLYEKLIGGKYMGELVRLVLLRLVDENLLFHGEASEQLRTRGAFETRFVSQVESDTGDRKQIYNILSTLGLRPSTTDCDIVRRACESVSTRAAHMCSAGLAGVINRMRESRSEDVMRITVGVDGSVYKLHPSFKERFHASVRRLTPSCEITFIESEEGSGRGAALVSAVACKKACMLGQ
From the text: as §1, §2

Row | Compound | EC50 [1] | EC100% [1] | EC50 [2] | EC100% [2] | activation at 50 µM [2] [%] | activation at 50 µM [1] [%]
1 | COC(=O)c1ccc(NC(=O)CSC2C3=C(CCCC3)C(=O)N2Cc2ccc(OC)cc2)nc1 (stereo not drawn) [Compound 2] | 0.35 µM | 1.32 µM | 0.16 µM and 0.21 µM | 0.52 µM and 0.98 µM |  | 
2 | COc1ccc([C@H](C)N2C(=O)C3=C(CCCC3)[C@H]2SCC(=O)Nc2ccccn2)cc1 (single isomer, unassigned) [Compound 7] |  |  |  |  | 0 | 35
3 | COc1ccc(CN2C(=O)C3=C(CCCC3)C2OCC(=O)Nc2ccccn2)cc1 (stereo not drawn) [Compound 4, 2-[2-(4-Methoxy-benzyl)-3-oxo-2,3,4,5,6,7-hexahydro-1H-isoindol-1-yloxy]-N-pyridin-2-yl-acetamide] |  |  | 7.78 µM | 31.4 µM | 114 | 
4 | COc1ccc(CN2C(=O)C3=C(CCCC3)C2SCC(=O)Nc2nccs2)cc1OC (stereo not drawn) [Compound 12, 2-[2-(3,4-Dimethoxy-benzyl)-3-oxo-2,3,4,5,6,7-hexahydro-1H-isoindol-1-ylsulfanyl]-N-thiazol-2-yl-acetamide] | 4.3 µM | 17.1 µM | 3.1 µM | 10.3 µM | 196 | 143
5 | COc1ccc(CN2C(=O)C3=C(CCCC3)C2SCC(=O)Nc2ccc(C(N)=O)cn2)cc1OC (stereo not drawn) [Compound 13, 6-{2-[2-(3,4-Dimethoxy-benzyl)-3-oxo-2,3,4,5,6,7-hexahydro-1H-isoindol-1-ylsulfanyl]-acetylamino}-nicotinamide] | 0.21 µM | 3.1 µM |  |  |  | 
6 | COc1ccc(CN2C(=O)C3=C(CCCC3)C2SCC(=O)Nc2ccc(C)cn2)cc1OC (stereo not drawn) [Compound 11, 2-[2-(3,4-Dimethoxy-benzyl)-3-oxo-2,3,4,5,6,7-hexahydro-1H-isoindol-1-ylsulfanyl]-N-(5-methyl-pyridin-2-yl)-acetamide] | 0.8 µM | 5.7 µM | 0.55 µM | 3.5 µM | 202 | 168
7 | COc1ccc(CN2C(=O)C3=C(CCCC3)C2SCC(=O)Nc2ccc(C(=O)O)cn2)cc1 (stereo not drawn) [Compound 8, 6-{2-[2-(4-Methoxy-benzyl)-3-oxo-2,3,4,5,6,7-hexahydro-1H-isoindol-1-ylsulfanyl]-acetylamino}-nicotinic acid] | 1.3 µM and 0.74 µM and 0.63 µM |  | 0.9 µM | 2.5 µM |  | 
8 | O=C(CSC1C2=C(CCCC2)C(=O)N1Cc1ccc(F)cc1)Nc1ccc(C(=O)O)cn1 (stereo not drawn) [Compound 21, 6-{2-[2-(4-Fluoro-benzyl)-3-oxo-2,3,4,5,6,7-hexahydro-1H-isoindol-1-ylsulfanyl]-acetylamino}-nicotinic acid] | 2.2 µM | 12 µM |  |  |  | 165
9 | COC(=O)c1ccc(NC(=O)CSC2C3=C(CCCC3)C(=O)N2Cc2ccc(OC(C)C)cc2)nc1 (stereo not drawn) [Compound 5] |  |  | 3.1 µM and 1.05 µM | 5.54 µM |  | 
10 | O=C(CSC1C2=C(CCCC2)C(=O)N1Cc1ccc(O)cc1)Nc1nccs1 (stereo not drawn) [Compound 15, 2-[2-(4-Hydroxy-benzyl)-3-oxo-2,3,4,5,6,7-hexahydro-1H-isoindol-1-ylsulfanyl]-N-thiazol-2-yl-acetamide] | 7.3 µM | >50 µM |  |  |  | 106
11 | COC(=O)c1ccc(NC(=O)CSC2C3=C(CCCC3)C(=O)N2Cc2ccc(OC)c(OC)c2)nc1 (stereo not drawn) [Compound 9, 6-{2-[2-(3,4-Dimethoxy-benzyl)-3-oxo-2,3,4,5,6,7-hexahydro-1H-isoindol-1-ylsulfanyl]-acetylamino}-nicotinic acid methyl ester] | 0.33 µM | 2.2 µM | 0.25 µM | 1.43 µM | 206 | 164
12 | NC(=O)c1ccc(NC(=O)CSC2C3=C(CCCC3)C(=O)N2Cc2ccc(F)cc2)nc1 (stereo not drawn) [Compound 20, 6-{2-[2-(4-Fluorobenzyl)-3-oxo-2,3,4,5,6,7-hexahydro-1H-isoindol-1-sulfanyl]-acetylamino}-nicotinamide] | 0.45 µM and 0.27 µM | 2 µM and 3.6 µM |  |  |  | 

More lines, now with the values ahead:

Row | EC50 [1] | EC100% [1] | EC50 [2] | EC100% [2] | activation at 50 µM [2] [%] | activation at 50 µM [1] [%] | Compound
13 | 0.45 µM | 1.8 µM | 0.39 µM | 1.35 µM | 259 |  | COc1ccc(CN2C(=O)C3=C(CCCC3)C2SCC(=O)Nc2ccccn2)cc1OC (stereo not drawn) [Compound 10, 2-[2-(3,4-Dimethoxy-benzyl)-3-oxo-2,3,4,5,6,7-hexahydro-1H-isoindol-1-ylsulfanyl]-N-pyridin-2-yl-acetamide]
14 |  |  | 0.39 µM | 1 µM | 250 |  | COc1ccc(CN2C(=O)C3=C(CCCC3)C2SCC(=O)Nc2ccccn2)cc1 (stereo not drawn) [Compound 3, 2-[2-(4-Methoxy-benzyl)-3-oxo-2,3,4,5,6,7-hexahydro-1H-isoindol-1-ylsulfanyl]-N-pyridin-2-yl-acetamide]
15 |  |  |  |  | 21 | 79 | COc1ccc([C@H](C)N2C(=O)C3=C(CCCC3)[C@@H]2SCC(=O)Nc2ccccn2)cc1 (single isomer, unassigned) [Compound 6]
16 | 1.6 µM | 5 µM |  |  |  | 218 | O=C(CSC1C2=C(CCCC2)C(=O)N1Cc1ccncc1)Nc1ccccn1 (stereo not drawn) [Compound 19, 2-(3-Oxo-2-pyridin-4-ylmethyl-2,3,4,5,6,7-hexahydro-1H-isoindol-1-ylsulfanyl)-N-pyridin-2-yl-acetamide]
17 | 1.1 µM | 4.9 µM |  |  |  | 190 | COc1ccc(CN2C(=O)C3=C(CCC3)C2SCC(=O)Nc2ccccn2)cc1 (stereo not drawn) [Compound 16, 2-[2-(4-Methoxy-benzyl)-3-oxo-1,2,3,4,5,6-hexahydro-cyclopenta[c]pyrrol-1-ylsulfanyl]-N-pyridin-2-yl-acetamide]
18 | 3.6 µM | 22 µM |  |  |  |  | O=C(CSC1C2=C(CCCC2)C(=O)N1Cc1cccnc1)Nc1ccccn1 (stereo not drawn) [Compound 18, 2-(3-Oxo-2-pyridin-3-ylmethyl-2,3,4,5,6,7-hexahydro-1H-isoindol-1-ylsulfanyl)-N-pyridin-2-yl-acetamide]
19 | 0.71 µM | 6.3 µM |  |  |  | 125 | O=C(CSC1C2=C(CCCC2)C(=O)N1Cc1cccc2ccccc12)Nc1ccccn1 (stereo not drawn) [Compound 17, 2-(2-Naphthalen-1-ylmethyl-3-oxo-2,3,4,5,6,7-hexahydro-1H-isoindol-1-ylsulfanyl)-N-pyridin-2-yl-acetamide]
20 | 10.9 µM | >50 µM |  |  |  | 79.4 | O=C(CSC1C2=C(CCCC2)C(=O)N1Cc1ccc([N+](=O)[O-])cc1)Nc1ccccn1 (stereo not drawn) [Compound 14, 2-[2-(4-Nitro-benzyl)-3-oxo-2,3,4,5,6,7-hexahydro-1H-isoindol-1-ylsulfanyl]-N-pyridin-2-yl-acetamide]
